Experimental data taken from PMC5789083, “Mechanisms driving the antibacterial and antibiofilm properties of Hp1404 and its analogue peptides against multidrug-resistant Pseudomonas aeruginosa” (Scientific Reports, 2018).
Read-outs that look alike come from different tables or passages of the source. Where no end group is shown, it is not given here.

Columns and labels:
[1] = tested on: Pseudomonas aeruginosa and MRPA strains; assay: microbe, parasite or virus in culture; type: cell-based; conditions: broth micro-dilution, 37 °C, 18–24 h
Source text: Gram-negative (Pseudomonas aeruginosa ATCC 27853) bacterial strains were obtained from the ATCC (American Type Culture Collection; Manassas, VA, USA). Multidrug-resistant strains (Pseudomonas aeruginosa 138, 431, 434, 557, 559, 778, 1034, 1162, 3290, 3399, 3592, 3904, 4007, 4319, 4891, 5018, and 671973) were obtained from the Chonnam National University Hospital (Gwangju, South Korea).
(§1) We examined the activity of each peptide against both pseudomonas aeruginosa and multidrug-resistant strains. The minimal inhibitory concentrations (MICs) of peptides were determined using the broth micro-dilution assay as described previously. Briefly, bacterial strains were cultivated with shaking overnight at 37 °C. The next day, they were diluted to a density of 2 × 10^5 CFU/mL with growth medium. Peptides were serially diluted with 10 mM sodium phosphate buffer. 50 µL bacterial aliquots were mixed with an equal volume of peptide solution, and incubated at 37 °C for 18–24 h. Inhibition of bacterial growth was determined by measuring the absorbance at 600 nm using a Versa Max microplate reader (Molecular Devices, Sunnyvale, CA, USA). The test was performed in triplicate.

HaCaT cells = assay: Cytotoxicity, MTT assay; type: cell-based, human; conditions: 50 µM, 24 h
Protocol: We used the MTT assay to evaluate the toxicity of the peptides toward human skin epithelial cells (HaCaT) as previously described. Briefly, HaCaT cells were seeded at a density of 2 × 10^4 cells per well in 96-well microtiter plates in Dulbecco’s modified Eagle’s medium (DMEM) containing 10% foetal bovine serum (FBS) at 37 °C under 5% CO2 atmosphere. The next day, peptides were added to each well at various final concentrations (higher concentration of 200 µM). After 24 h incubation, culture supernatants were removed. 0.5 mg/mL MTT was added to each well, and the plates were incubated for 4 h at 37 °C. The medium was replaced by dimethyl sulfoxide (DMSO) to dissolve the formazan crystals formed in the wells. The absorbance at 570 nm was measured using a Versa-Max microplate ELISA reader (Molecular Devices). The viability rate was calculated using the following formula: Cell viability (%) = (absorbance of treated sample)/(absorbance of control) × 100.

P. aeruginosa 27853 = type: cell-based, Pseudomonas aeruginosa
Protocol: as §1
The effects of various cations on the antibacterial activities of the parental and analogue peptides against P. aeruginosa 27853 were evaluated as previously described. Bacteria was treated with peptides at a final concentration 25 µM in the presence of physiological salts such as NaCl (50 mM, 100 mM, and 150 mM), CaCl2 (1.25 mM, 2.5 mM, and 5 mM), or MgCl2 (0.5 mM, 1 mM, and 2 mM). The MIC values were determined as described above.

[2] = tested on: P. aeruginosa strains (biofilm formation); type: cell-based, Pseudomonas aeruginosa; conditions: 24 h, 37 °C, crystal violet OD595
Protocol: To evaluate the ability of bacterial strains to form biofilms either in the absence or presence of peptides, antibiotic-susceptible P. aeruginosa (ATCC 27853), and various strains of MDR P. aeruginosa were cultured in nutrient broth (NB). […]. The biofilms were fixed with 100% methanol for 15 min, stained with 0.1% crystal violet (CV) for 1 h, and rinsed three times with distilled water (dH2O). After the addition of 95% ethanol, biofilm mass was quantified by measuring OD at 595 nm using a Versa-Max microplate ELISA reader (Molecular Devices). Results were expressed as the percentage of biofilm formed with respect to the control. […] All experiments were performed at least in triplicate.

[3] = P. aeruginosa 138 (multidrug-resistant), triplicate
[4] = P. aeruginosa 431 (multidrug-resistant), triplicate
[5] = P. aeruginosa 434 (multidrug-resistant), triplicate
[6] = P. aeruginosa 557 (multidrug-resistant), triplicate
[7] = P. aeruginosa 559 (multidrug-resistant), triplicate
[8] = P. aeruginosa 778 (multidrug-resistant), triplicate
[9] = P. aeruginosa 1034 (multidrug-resistant), triplicate
[10] = P. aeruginosa 1162 (multidrug-resistant), triplicate
[11] = P. aeruginosa 3290 (multidrug-resistant), triplicate
[12] = P. aeruginosa 3399 (multidrug-resistant), triplicate
[13] = P. aeruginosa 3543 (multidrug-resistant), triplicate
[14] = P. aeruginosa 3592 (multidrug-resistant), triplicate
[15] = P. aeruginosa 3904 (multidrug-resistant), triplicate
[16] = P. aeruginosa 4007 (multidrug-resistant), triplicate
[17] = P. aeruginosa 4319 (multidrug-resistant), triplicate
[18] = P. aeruginosa 4891 (multidrug-resistant), triplicate
[19] = P. aeruginosa 5018 (multidrug-resistant), triplicate
[20] = P. aeruginosa 671973 (multidrug-resistant), triplicate
[21] = P. aeruginosa ATCC 27853, 2 × 10^5 CFU/mL, A600, triplicate
[22] = P. aeruginosa 27853, 5 × 10^5 CFU/mL, 0.2% glucose

| Substance | MIC [1, 3] | MIC [1, 4] | MIC [1, 5] | MIC [1, 6] | MIC [1, 7] | MIC [1, 8] | MIC [1, 9] | MIC [1, 10] | MIC [1, 11] | MIC [1, 12] | MIC [1, 13] | MIC [1, 14] | MIC [1, 15] | MIC [1, 16] | MIC [1, 17] | MIC [1, 18] | MIC [1, 19] | MIC [1, 20] | MIC [1, 21] | survival rate of HaCaT cells (HaCaT cells) | further results |
| --- | --- | --- | --- | --- | --- | --- | --- | --- | --- | --- | --- | --- | --- | --- | --- | --- | --- | --- | --- | --- | --- |
| ILKKLWEGVKSI-NH2 [Hp1404-T1a] | >25 µM | 25 µM | 25 µM | >25 µM | >25 µM | >25 µM | >25 µM | >25 µM | >25 µM | 25 µM | >25 µM | 12.5 µM | 25 µM | >25 µM | >25 µM | 25 µM | >25 µM | 25 µM | >25 µM |  |  |
| ILKKLLKGVKSI-NH2 [Hp1404-T1c] | 25 µM | 12.5 µM | 6.25 µM | 25 µM | 25 µM | 6.25 µM | 6.25 µM | 3.13 µM | >25 µM | 3.13 µM | >25 µM | 6.25 µM | 6.25 µM | 12.5 µM | 6.25 µM | 6.25 µM | 3.13 µM | 6.25 µM | 3.13 µM | 51% | MIC (P. aeruginosa 27853; CaCl2 1.25 mM): >25 µM; MIC (P. aeruginosa 27853; CaCl2 2.5 mM): >25 µM; MIC (P. aeruginosa 27853; CaCl2 5 mM): >25 µM; MIC (P. aeruginosa 27853; MgCl2 0.5 mM): 12.5 µM; MIC (P. aeruginosa 27853; MgCl2 1 mM): 12.5 µM; MIC (P. aeruginosa 27853; MgCl2 2 mM): >25 µM; MIC (P. aeruginosa 27853; NaCl 50 mM): >25 µM; MIC (P. aeruginosa 27853; NaCl 100 mM): >25 µM; MIC (P. aeruginosa 27853; NaCl 150 mM): >25 µM; MBIC ([2]; P. aeruginosa 434): 50 µM; MBIC ([2]; P. aeruginosa 559): 25 µM; MBIC ([2]; P. aeruginosa 778): 25 µM; MBIC ([2]; P. aeruginosa 1034): 25 µM; MBIC ([2]; P. aeruginosa 1162): 12.5 µM; MBIC ([2]; P. aeruginosa 3399): 25 µM; MBIC ([2]; P. aeruginosa 3543): >50 µM; MBIC ([2]; P. aeruginosa 4007): >50 µM; MBIC [2, 22]: 25 µM |
| Buforin2 [reference compound] | 12.5 µM | 6.25 µM | 6.25 µM | 6.25 µM | 12.5 µM | 12.5 µM | 6.25 µM | 12.5 µM | 6.25 µM | 12.5 µM | 12.5 µM | 3.13 µM | 6.25 µM | 12.5 µM | 12.5 µM | >25 µM | 12.5 µM | 3.13 µM | 25 µM |  |  |
| ILKKLLEGVKSI-NH2 [Hp1404-T1b] | >25 µM | >25 µM | 25 µM | >25 µM | >25 µM | >25 µM | >25 µM | >25 µM | >25 µM | >25 µM | >25 µM | 25 µM | >25 µM | >25 µM | >25 µM | >25 µM | >25 µM | >25 µM | >25 µM |  |  |
| ILGKLWEGVKSI-NH2 [Hp1404-T1] | >25 µM | >25 µM | >25 µM | >25 µM | >25 µM | >25 µM | >25 µM | >25 µM | >25 µM | >25 µM | >25 µM | >25 µM | >25 µM | >25 µM | >25 µM | >25 µM | >25 µM | >25 µM | >25 µM |  |  |
| ILKKLLKKVKSI-NH2 [Hp1404-T1d] | 12.5 µM | 3.13 µM | 3.13 µM | 3.13 µM | 12.5 µM | 3.13 µM | 3.13 µM | 1.56 µM | 6.25 µM | 1.56 µM | 25 µM | 3.13 µM | 6.25 µM | 6.25 µM | 3.13 µM | 3.13 µM | 1.56 µM | 1.56 µM | 1.56 µM | 33% | MIC (P. aeruginosa 27853; CaCl2 1.25 mM): 12.5 µM; MIC (P. aeruginosa 27853; CaCl2 2.5 mM): 25 µM; MIC (P. aeruginosa 27853; CaCl2 5 mM): >25 µM; MIC (P. aeruginosa 27853; MgCl2 0.5 mM): 3.13 µM; MIC (P. aeruginosa 27853; MgCl2 1 mM): 6.25 µM; MIC (P. aeruginosa 27853; MgCl2 2 mM): 12.5 µM; MIC (P. aeruginosa 27853; NaCl 50 mM): 12.5 µM; MIC (P. aeruginosa 27853; NaCl 100 mM): 12.5 µM; MIC (P. aeruginosa 27853; NaCl 150 mM): 25 µM; MBIC ([2]; P. aeruginosa 434): 12.5 µM; MBIC ([2]; P. aeruginosa 559): 12.5 µM; MBIC ([2]; P. aeruginosa 778): 12.5 µM; MBIC ([2]; P. aeruginosa 1034): 12.5 µM; MBIC ([2]; P. aeruginosa 1162): 6.25 µM; MBIC ([2]; P. aeruginosa 3399): 25 µM; MBIC ([2]; P. aeruginosa 3543): >50 µM; MBIC ([2]; P. aeruginosa 4007): 50 µM; MBIC [2, 22]: 12.5 µM |
